These are literature values, as cited in patent US6388175B1, “Control of leaf scald disease” (priority 1995, dated 2002).

The conditions of the data set: 100° C. for 30 min.

“Also recorded” adds a separate entry of the source.

albicidin: the Activity after heating result was “unaffected; also recorded: little activity is lost”.
